Reference: patent US4389398A, “Amino glycoside antibiotics having antiprotozoal and anthelmintic activity” (priority 1978, dated 1983)
Converted amounts (≈) assume the structure as drawn. Like-named read-outs stand apart in the source and are kept apart here.

Columns and labels:
[1] = tested on: bacteria; details: cited from earlier work
[2] = tested on: Histomonas meleagridis; experiment: Prophylactic activity in turkeys against Histomonas meleagridis; assay type: in vivo; details: turkeys inoculated orally with 500 Heterakis gallinae ova
Experimental: Gentamicin A was administered to groups of turkeys at dosage levels of 5, 10, and 15 mg. per turkey per day in aqueous solution. Two days after the initiation of the drug, the turkeys were inoculated orally with 500 Heterakis gallinae ova (the intermediate host carrier of Histomonas). A single group of turkeys received 0.035% of gentamicin A in their feed for six days. Untreated infected controls were also carried in each experiment. The test is continued for twelve days and the birds are autopsied on the thirteenth day. Infection is usually manifested principally in two areas, the cecum and the liver which are the areas examined during the autopsy.

[3] = tested on: Entamoeba histolytica; experiment: Stated activity against Entamoeba histolytica
[4] = tested on: Trichomonas vaginalis; experiment: Stated activity against Trichomonas vaginalis
[5] = tested on: Trichomonas vaginalis; experiment: In vitro activity against Trichomonas vaginalis; assay type: cell-based; details: Trichomonas vaginalis; for MIC: read-out: Minimal 99% Suppression Level; for MBC: read-out: Minimal Cidal Level
Excerpt: In Table VI below is set forth the in vitro activity of the compounds of this invention against T. vaginalis. The test procedure used was substantially as described by R. J. Schnitzer on pages 289-331 in Experimental Chemotherapy, Volume 1, Academic Press, New York (1963).

[6] = tested on: Trichomonas foetus; experiment: Stated activity against Trichomonas foetus
[7] = tested on: Syphacia obvelata; experiment: Stated anthelmintic activity against pinworms such as Syphacia obvelata
[8] = tested on: Histomonas meleagridis; experiment: Stated activity against Histomonas meleagridis
[9] = tested on: Pseudomonas aeruginosa SC; experiment: Protective activity in mice, Pseudomonas aeruginosa SC infection; assay type: in vivo; details: subcutaneous one hour after infection, survivors at 48 hours, read-out: PD50
Experimental: (§1) Infected non-treated controls die in about 18 to 24 hours. Generally 5-7 dose levels are administered to mice weighing about 20 grams in groups of 7-10.

[10] = tested on: Salmonella paratyphi B; experiment: Protective activity in mice, Salmonella paratyphi B infection; assay type: in vivo; details: Salmonella enterica, sc, subcutaneous one hour after infection, survivors at 48 hours, read-out: PD50
Experimental: as §1

[11] = tested on: Streptococcus pyogenes; experiment: In vitro minimal inhibitory concentration, Streptococcus pyogenes; assay type: cell-based; details: pH 7.4
Experimental: (§2) In Table III below is set forth the in vitro minimal inhibitory concentration of gentamicin B, gentamicin B1 and gentamicin X all in the free base form against a variety of gram positive and gram negative microorganisms. The experiments were carried out in a yeast beef broth medium at pH 7.4.

[12] = tested on: Streptococcus pyogenes C; experiment: Protective activity in mice, Streptococcus pyogenes C infection; assay type: in vivo; details: sc, subcutaneous one hour after infection, survivors at 48 hours, read-out: PD50
Experimental: as §1

[13] = tested on: Klebsiella pneumoniae; experiment: In vitro minimal inhibitory concentration, Klebsiella pneumoniae; assay type: cell-based; details: pH 7.4
Experimental: as §2

[14] = tested on: Staphylococcus aureus; experiment: In vitro minimal inhibitory concentration, Staphylococcus aureus; assay type: cell-based; details: pH 7.4
Experimental: as §2

[15] = tested on: Pseudomonas aeruginosa; experiment: In vitro minimal inhibitory concentration, Pseudomonas aeruginosa; assay type: cell-based; details: pH 7.4
Experimental: as §2

[16] = tested on: Escherichia coli; experiment: In vitro minimal inhibitory concentration, Escherichia coli; assay type: cell-based; details: pH 7.4
Experimental: as §2

[17] = Acute toxicity in mice; details: mouse
Experimental: The acute toxicity of gentamicin B, gentamicin B1 and gentamicin X is determined in male CF-1 (Carworth Farms) mice weighing about 20 grams each.

[18] = tested on: Shigella sp. M324; experiment: In vitro minimal inhibitory concentration, Shigella sp. M324; assay type: cell-based; details: free base; yeast beef broth medium, pH 7.4
Experimental: as §2

[19] = tested on: Sarcina lutea; experiment: In vitro minimal inhibitory concentration, Sarcina lutea; assay type: cell-based; details: pH 7.4
Experimental: as §2

[20] = tested on: Staphylococcus aureus Gray; experiment: Protective activity in mice, Staphylococcus aureus Gray infection; assay type: in vivo; details: sc, subcutaneous one hour after infection, survivors at 48 hours, read-out: PD50
Experimental: as §1

[21] = Chronic toxicity (ataxia) in cats after daily subcutaneous dosing; assay type: in vivo
Excerpt: There appears to be a causal relationship between high doses of amino-glycoside type antibiotics given over an extended period of time and vestibular damage wherein one of the early manifestations is ataxia. […] Moreover, they may be used at such dosages for a time interval substantially beyond that normally required to eliminate infection without causing ataxia; and with minimal, if any, toxic manifestations. Thus, gentamicin B and gentamicin B1 represent a substantial improvement over antibiotics of this class (amino-glycoside) that are currently in use.

[22] = tested on: Staphylococcus aureus W; experiment: Protective activity in mice, Staphylococcus aureus W infection; assay type: in vivo; details: sc, subcutaneous one hour after infection, survivors at 48 hours, read-out: PD50
Experimental: as §1

[23] = tested on: Bacillus subtilis; experiment: In vitro minimal inhibitory concentration, Bacillus subtilis; assay type: cell-based; details: pH 7.4
Experimental: as §2

[24] = tested on: Staphylococcus aureus Smith; experiment: Protective activity in mice, Staphylococcus aureus Smith infection; assay type: in vivo; details: sc, subcutaneous one hour after infection, survivors at 48 hours, read-out: PD50
Experimental: as §1

[25] = tested on: Aerobacter aerogenes; experiment: In vitro minimal inhibitory concentration, Aerobacter aerogenes; assay type: cell-based; details: pH 7.4
Experimental: as §2

[26] = tested on: Syphacia obvelata; experiment: Anthelmintic activity in vivo against Syphacia obvelata in mice; parameters: species or system male Millerton mice
[27] = free base, yeast beef broth medium, read-out: MIC

## CNC1C(O)COC(OC2C(N)CC(N)C(OC3OC(CO)C(O)C(O)C3N)C2O)C1O (centres unmarked) [Gentamicin A]
[1]
  antibiotic activity (in words): rather weak antibiotic activity
[2]
  minimum dosage level with prophylactic activity: 10 mg. per bird
[3]
  antiprotozoal activity (in words): effective
[4]
  antiprotozoal activity (in words): effective
[5]; 24 hours
  MIC: 10 µg/mL (≈ 21.3 µM)
  MBC: 25 µg/mL (≈ 53.4 µM)
[5]; 48 hours
  MIC: 5 to 10 µg/mL (≈ 10.7 to 21.3 µM)
  MBC: 10 µg/mL (≈ 21.3 µM)
[6]
  antiprotozoal activity (in words): effective
[7]
  anthelmintic activity (in words): effective
[8]
  antiprotozoal activity (in words): effective

## CNC1C(O)C(OC2C(N)CC(N)C(OC3OC(C(C)N)C(O)C(O)C3O)C2O)OCC1(C)O (centres unmarked) [Gentamicin B1]
[9]
  ED50: 2 mg/kg
[10]
  ED50: 4 mg/kg
[11]; [27]
  MIC: 3 µg/mL (≈ 6.04 µM)
[12]
  ED50: 18 mg/kg
[3]
  antiprotozoal activity (in words): to a lesser extent
[13]; [27]
  MIC: 3 µg/mL (≈ 6.04 µM)
[14]; [27]
  MIC: 0.3 to 3 µg/mL (≈ 0.604 to 6.04 µM)
[15]; [27]
  MIC: 0.08 µg/mL (≈ 0.161 µM)
[5]; 24 hours
  MIC: 25 µg/mL (≈ 50.3 µM)
  MBC: > 250 µg/mL
[5]; 48 hours
  MIC: 10 to 25 µg/mL (≈ 20.1 to 50.3 µM)
  MBC: 25 µg/mL (≈ 50.3 µM)
[16]; [27]
  MIC: 0.08 to 0.3 µg/mL (≈ 0.161 to 0.604 µM)
[17]; in vivo, ip
  LD50: 1600 mg/kg
[17]; in vivo, iv
  LD50: 230 mg/kg
[17]; in vivo, po
  LD50: > 250 mg/kg
[17]; in vivo, sc
  LD50: > 1500 mg/kg
[7]
  anthelmintic activity (in words): effective
[8]
  antiprotozoal activity (in words): to a lesser extent
[18]
  MIC: 5 µg/mL (≈ 10.1 µM)
[19]; [27]
  MIC: 0.3 µg/mL (≈ 0.604 µM)
[20]
  ED50: 30 mg/kg
[21]; 40 mg/kg/day subcutaneous
  Average No. Days to become ataxic: 108.0 days
[21]; 60 mg/kg/day subcutaneous
  Average No. Days to become ataxic: 69.0 days
[21]; 240 mg/kg/day subcutaneous
  Average No. Days to become ataxic: 21.0 days
[21]; high doses
  period of administration to cause impairment of the "righting reflex" and ataxia (in words): required substantially longer periods of administration at high doses
[21]; see Table VIII
  ataxic potential (in words): low ataxic potential
[22]
  ED50: 50 mg/kg
[23]; [27]
  MIC: 3 µg/mL (≈ 6.04 µM)
[24]
  ED50: 2.5 mg/kg
[25]; [27]
  MIC: 0.08 µg/mL (≈ 0.161 µM)

## CNC1C(O)C(OC2C(N)CC(N)C(OC3OC(CN)C(O)C(O)C3O)C2O)OCC1(C)O (centres unmarked) [Gentamicin B]
[9]
  ED50: 2 mg/kg
[10]
  ED50: 5 mg/kg
[11]
  MIC: 3 µg/mL (≈ 6.22 µM)
[12]
  ED50: 15 mg/kg
[3]
  antiprotozoal activity (in words): to a lesser extent
[13]
  MIC: 3 µg/mL (≈ 6.22 µM)
[26]; 8 mg/kg/day, 0.008% in diet
  % Infected: 67%
  Mean Worm Burden: 29.5
[26]; 39 mg/kg/day, 0.02% in diet
  % Infected: 0%
  Mean Worm Burden: 0
[26]; 100 mg/kg/day, 0.0625% in diet
  % Infected: 0%
  Mean Worm Burden: 0
[26]; 259 mg/kg/day, 0.25% in diet
  % Infected: 0%
  Mean Worm Burden: 0
[26]; Syphacia obvelata, read-out: minimum dosage with anthelmintic activity
  minimal effective dose: 39 mg/kg/day
[26]; male Millerton mice
  anthelmintic activity (in words): exhibit anthelmintic activity
[14]
  MIC: 0.3 to 3 µg/mL (≈ 0.622 to 6.22 µM)
[15]
  MIC: 0.03 to 0.08 µg/mL (≈ 0.0622 to 0.166 µM)
[5]; 24 h
  MIC: 25 µg/mL (≈ 51.8 µM)
  MBC: > 250 µg/mL
[5]; 48 h
  MIC: 25 µg/mL (≈ 51.8 µM)
  MBC: 25 µg/mL (≈ 51.8 µM)
[16]
  MIC: 0.03 to 0.3 µg/mL (≈ 0.0622 to 0.622 µM)
[17]; ip
  LD50: 1750 mg/kg
[17]; iv
  LD50: 228 mg/kg
[17]; po
  LD50: > 250 mg/kg
[17]; sc
  LD50: > 1500 mg/kg
[7]
  anthelmintic activity (in words): effective
[8]
  antiprotozoal activity (in words): to a lesser extent
[18]
  MIC: 5 µg/mL (≈ 10.4 µM)
[19]
  MIC: 0.3 µg/mL (≈ 0.622 µM)
[20]
  ED50: 20 mg/kg
[21]; in vivo
  ataxic potential (in words): low ataxic potential
  period of administration to cause impairment of the "righting reflex" and ataxia (in words): required substantially longer periods of administration at high doses
[22]
  ED50: 50 mg/kg
[23]
  MIC: 0.8 µg/mL (≈ 1.66 µM)
[24]
  ED50: 5 mg/kg
[25]
  MIC: 0.08 µg/mL (≈ 0.166 µM)
